# Laboratory results published in patent publication US11040056B2, “Benzimidazoles that enhance the activity of oligonucleotides” (The University of North Carolina at Chapel Hill, priority 2018, dated 2021).
# How the values were obtained:
# [1] = system: CFTR channel activity in human bronchial epithelial cells (HBEC) from a 3849+10 kbC-T homozygous patient; assay: Ussing chamber analysis of CFTR function in 3849+10 kbC-T HBEC; type: cell-based
# Source text: FIG. 11. CFTR activity restored to CF splicing mutation 3849+10 kbC-T using SSOs. SSOs were delivered in vitro by electroporation (˜100% efficiency), CF primary cells were differentiated on permeable supports and tested. Panel A. PCR analysis. The lower band is the correctly spliced CFTR. Panel B. Functional correction by Ussing chamber analysis.
# FIG. 12. OEC Mediated Delivery of a SSO in 3849+10 kbC-T HBEC. Well-differentiated human bronchial epithelial cells (HBEC) derived from a 3849+10 kbC-T homozygous patient were incubated with corrective (LNA) SSO A from FIG. 1 (1 uM, overnight). Cells were then incubated with OEC UNC2383 in the luminal or serosal bath (4 uM, 2 hs). Both the SSO and OEC were added in cell growing medium. Seventy two hour later, HBEC were analyzed in Ussing chamber for CFTR function. Orkambi® was tested in parallel inserts.
# Results: In vitro studies were performed in well-differentiated HBEC cells derived from a homozygous 3849+10 kbC→T CF patient (CF HBEC) treated with one dose of a specific SSO (1 uM, 12 hs) followed by one dose of OEC (apical or basolateral delivery, 2-4 uM, 2-3 hs). A significant increase of forskolin-stimulated CFTR activity in Ussing chamber analyses was observed 24-96 hs after SSO+OEC treatment compared to SSO alone treatment or vehicle. OEC was efficacious delivered apically as well as basolaterally. Transepithelial resistance and microscopy tests were implemented to monitor cytotoxicity, which was negligible for both SSO and OEC (FIG. 12). In vivo studies were performed in a transgenic mouse model that has a SSO-inducible EGFP reporter.
# SSOs (100 nM) were introduced in airway epithelial cells derived from a 3849+10 kbC-T homozygous CF patient in suspension by electroporation using the Neon system, program A4. Cells were differentiated for 2 weeks in culture on human collagen-coated permeable supports (Millipore) before being tested in Ussing chambers following methods described in Kreda et al. […] “Characterization of Wild-Type and ΔF508 Cystic Fibrosis Transmembrane Regulator in Human Respiratory Epithelia” Mol. Biol. Cell 16(5):2154-2167 (100 uM Amiloride, Amil; 10 uM Forskolin, Fsk; 20 uM CFTR inhibitor 172). After Ussing chamber analysis, cells were lysed and assayed for RT-PCR as described in Wang et al 2017 (FIG. 11).
# (SEQ ID NO:2), C (5′+G*mA*mG*mU*+C*mU*mU**mU*mA*+C*mU*mC*mA*mC*mC*+A*mU*mU*mU) (SEQ ID NO:3) (Locked Nucleic Acid (LNA)=+, PS=*, 2′OMe=m). In SSO sequences A, B, and C the underlined bases indicate oligo bases that match up to the bases in the mutated splice site in the 3849+10 kb C-T CFTR splicing mutation. MM623 or SSO623 sequences are described herein. […]
# [2] = system: EGFP654 mouse tracheal epithelial cells (MTEC); assay: Splicing correction (EGFP expression) in EGFP654 mouse tracheal epithelial cells; type: cell-based; conditions: 1 uM SSO PS623 basolateral overnight, 3 uM OEC apical 2 hr
# Protocol: FIG. 13. EGFP654 Mouse tracheal cells. Well-differentiated tracheal epithelial cells derived from the EGFP654 mouse were treated basolaterally with 1 uM SSO PS623 (overnight) and apically with 3 uM OEC2383 (2 hr) or vehicle. Confocal microscopy images (xy, xz planes), bar=20 um.
# FIG. 15B: P-PMO+OEC mediated splicing correction in EGFP654 MTEC. Well-differentiated cultures of primary tracheal cells (MTEC) derived from the EGFP654 mouse were treated with only one dose of P-PMO“654” (0.5 uM, overnight) followed by vehicle (−) or OEC2383 or OEC7938 (+), (10 uM, 2 hs). Both the SSO and OEC were added in cell medium either into the basolateral (BL, 400 ul) or the apical (AP, 30 ul) sides. MTEC were imaged in face at low mag. with a 10× lens in a fluorescence microscope, after 48 hs and 65 days post-treatment. All wells had the same total cell numbers. Vehicle controls<10 cells/well; n=3, bar=70 um. 1) Basolateral delivery of one treatment of P-PMO and OEC corrected>70% MTEC/well at 48 hs post-treatment. EGFP expression was still evident in large groups of cells after 65 days.
# Methods: SSO623 (1 uM) was incubated basolaterally overnight in well-differentiated primary tracheal epithelial cells (MTEC) derived from the EGFP654 mouse (Wang et al, 2017); OEC2383 was administered apically or basolaterally (1-4 uM for 2-3 hs). […]
smiles,measurement,setting,value
O=C(Nc1nc2ccccc2n1CCN1CCCC1)c1cc2cc(Cl)ccc2o1 [UNC2383],CFTR channel activity / functional correction,"[1]; SSO A 1 uM overnight, OEC 4 uM 2 hs luminal or serosal, 72 h, approved drugs in parallel",significant enhancement
same,oligonucleotide enhancing activity in human airway epithelial cells,[1]; in vitro,negligible activity
same,EGFP expression / enhancing activity in MTEC,[2],notably expressed
